Measurements from paper PMC8185074, “Anchor extension: a structure-guided approach to design cyclic peptides targeting enzyme active sites” (Nature Communications, 2021).
Like-named read-outs stand apart in the source and are kept apart here. Peptide text beside a SMILES is read from it.

Tests used:
HDAC6 [1] = conditions: cited from earlier work
HDAC4 = target: T1, HDAC4 (Homo sapiens, UniProt P56524); conditions: Supp. Table 1; cited from earlier work
T1 construct: purchased BPS Biosciences

HDAC1 [2] = target: T2, HDAC1 (Homo sapiens, UniProt Q13547); assay: HDAC1 inhibition, full IC50 measurement (Reaction Biology; fluorogenic p53 peptide RHKK(Ac)AMC); assay type: biochemical; conditions: Supp. Table 1
T2 construct: purchased Reaction Biology Corporation (assay run by the CRO)
Protocol: (§1) The assay was performed using 50 μM fluorogenic peptide from p53 residues 379-382 [RHKK(Ac)AMC] in a base reaction buffer of 50 mM Tris-HCl at pH 8.0, 137 mM NaCl, 2.7 mM KCl, 1 mM MgCl2, and freshly added 1 mg/ml BSA and 1% DMSO. Peptides were first dissolved in DMSO and then added to the reaction mixture with the enzyme using acoustic technique, enough to reach the desired concentration for that assay point. Peptide concentrations were calculated based on mass of lyophilized peptide and its molecular weight. The substrate was then added and incubated for 1 hour at 30 °C in a sealed container. After the incubation, developer was added to stop the reaction and develop color. Kinetic measurements were then performed for 20 min with Envision with 5 min intervals (Ex/Em = 360/460 nm). The endpoint after plateau was taken for IC50 measurement.
(§2) In cases where duplicate measures are used, average data is reported in the main text or Supplementary Tables.

HDAC8 = target: T3, HDAC8 (Homo sapiens, UniProt Q9BY41); assay: HDAC8 inhibition, full IC50 measurement (Reaction Biology; fluorogenic p53 peptide RHKK(Ac)AMC); assay type: biochemical; conditions: Supp. Table 1
T3 construct: purchased Reaction Biology Corporation (assay run by the CRO)
T3 sequence (Q9BY41 1-377): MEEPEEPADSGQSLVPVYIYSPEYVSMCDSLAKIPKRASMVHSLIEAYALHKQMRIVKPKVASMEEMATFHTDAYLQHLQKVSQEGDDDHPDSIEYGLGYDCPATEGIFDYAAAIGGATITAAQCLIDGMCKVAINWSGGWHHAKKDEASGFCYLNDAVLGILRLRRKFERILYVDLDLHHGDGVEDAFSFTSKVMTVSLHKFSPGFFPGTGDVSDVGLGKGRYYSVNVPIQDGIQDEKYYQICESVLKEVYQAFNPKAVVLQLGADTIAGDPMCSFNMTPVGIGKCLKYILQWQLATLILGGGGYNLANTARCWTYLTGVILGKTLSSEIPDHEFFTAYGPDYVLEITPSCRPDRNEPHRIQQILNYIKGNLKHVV
Protocol: as §1, §2

HDAC2 [3] = target: T4, HDAC2 (Homo sapiens, UniProt Q92769); assay: HDAC2 inhibition, full IC50 measurement (Reaction Biology; fluorogenic p53 peptide RHKK(Ac)AMC); assay type: biochemical; conditions: figure legends, Supp. Table 1; read-out: HDAC2 IC50
T4 construct: purchased Reaction Biology Corporation (assay run by the CRO)
How it was run: (§3)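 Deacetylation of 50 μM RHKK(Ac)AMC is measured after 1 h at 30 °C in pH 8.0 Tris buffer (1% DMSO, 1 mg/ml BSA). Developer ends the reaction; the post-plateau 360/460 nm signal is fitted to IC50, averaging replicate measurements.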

HDAC2 [4] = target: T4, HDAC2; assay: Initial HDAC2 IC50 estimate (BPS Biosciences HDAC fluorogenic assay kit); assay type: biochemical; conditions: Supplementary Dataset 2; read-out: HDAC2 activity (initial activity)
How it was run: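 Inhibition measured by kit-based fluorogenic HDAC activity assays, with each point in duplicate or triplicate. Values come from a full 1 µM–100 pM series (1:10 steps) or are range estimates from just 20 nM and 200 nM.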

HDAC6 [5] = target: T5, HDAC6 (Homo sapiens, UniProt Q9UBN7); assay: HDAC6 inhibition, full IC50 measurement (Reaction Biology; fluorogenic p53 peptide RHKK(Ac)AMC); assay type: biochemical; conditions: figure legends, Supp. Tables 1 and 8; read-out: HDAC6 IC50
T5 construct: purchased Reaction Biology Corporation (assay run by the CRO)
T5 sequence (Q9UBN7 1-1215): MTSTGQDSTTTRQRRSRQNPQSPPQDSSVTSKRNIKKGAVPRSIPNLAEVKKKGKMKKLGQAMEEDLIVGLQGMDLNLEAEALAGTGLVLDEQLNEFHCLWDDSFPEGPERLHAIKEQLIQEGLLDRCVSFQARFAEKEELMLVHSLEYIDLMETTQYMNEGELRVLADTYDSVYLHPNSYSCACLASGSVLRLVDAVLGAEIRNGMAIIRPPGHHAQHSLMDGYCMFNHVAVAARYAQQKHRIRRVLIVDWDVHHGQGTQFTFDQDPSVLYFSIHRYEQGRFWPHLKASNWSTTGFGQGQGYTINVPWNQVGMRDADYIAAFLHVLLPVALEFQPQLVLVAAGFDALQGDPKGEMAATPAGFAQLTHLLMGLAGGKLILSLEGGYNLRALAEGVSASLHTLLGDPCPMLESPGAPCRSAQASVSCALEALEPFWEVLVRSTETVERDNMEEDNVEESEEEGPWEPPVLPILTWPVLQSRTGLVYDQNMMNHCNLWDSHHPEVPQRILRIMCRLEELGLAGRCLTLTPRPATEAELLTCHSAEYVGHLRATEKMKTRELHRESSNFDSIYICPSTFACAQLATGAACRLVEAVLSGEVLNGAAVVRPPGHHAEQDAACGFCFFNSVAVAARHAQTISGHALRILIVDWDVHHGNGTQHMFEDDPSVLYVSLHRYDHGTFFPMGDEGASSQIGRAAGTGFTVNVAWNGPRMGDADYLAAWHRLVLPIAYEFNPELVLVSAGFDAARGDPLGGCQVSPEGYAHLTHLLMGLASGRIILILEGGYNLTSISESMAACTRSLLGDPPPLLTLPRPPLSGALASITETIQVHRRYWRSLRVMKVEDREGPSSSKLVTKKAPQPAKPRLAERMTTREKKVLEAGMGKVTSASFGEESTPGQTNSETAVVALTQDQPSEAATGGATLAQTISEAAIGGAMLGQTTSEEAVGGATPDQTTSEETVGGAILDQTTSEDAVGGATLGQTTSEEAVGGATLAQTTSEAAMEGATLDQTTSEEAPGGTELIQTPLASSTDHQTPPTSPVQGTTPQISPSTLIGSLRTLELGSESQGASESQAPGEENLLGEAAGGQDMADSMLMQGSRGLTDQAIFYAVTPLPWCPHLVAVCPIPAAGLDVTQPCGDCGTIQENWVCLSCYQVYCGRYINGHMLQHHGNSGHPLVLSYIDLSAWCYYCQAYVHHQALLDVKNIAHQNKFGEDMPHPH
How it was run: as §3

HDAC3 = target: T6, HDAC3 (Homo sapiens, UniProt O15379); assay: HDAC3 inhibition, full IC50 measurement (Reaction Biology; fluorogenic p53 peptide RHKK(Ac)AMC); assay type: biochemical; conditions: Supp. Table 1
T6 construct: purchased Reaction Biology Corporation (assay run by the CRO)
Protocol: as §1, §2

HDAC1 [6] = target: T2, HDAC1; conditions: Supp. Table 1; cited from earlier work

T4 sequence (Q92769 whole entry): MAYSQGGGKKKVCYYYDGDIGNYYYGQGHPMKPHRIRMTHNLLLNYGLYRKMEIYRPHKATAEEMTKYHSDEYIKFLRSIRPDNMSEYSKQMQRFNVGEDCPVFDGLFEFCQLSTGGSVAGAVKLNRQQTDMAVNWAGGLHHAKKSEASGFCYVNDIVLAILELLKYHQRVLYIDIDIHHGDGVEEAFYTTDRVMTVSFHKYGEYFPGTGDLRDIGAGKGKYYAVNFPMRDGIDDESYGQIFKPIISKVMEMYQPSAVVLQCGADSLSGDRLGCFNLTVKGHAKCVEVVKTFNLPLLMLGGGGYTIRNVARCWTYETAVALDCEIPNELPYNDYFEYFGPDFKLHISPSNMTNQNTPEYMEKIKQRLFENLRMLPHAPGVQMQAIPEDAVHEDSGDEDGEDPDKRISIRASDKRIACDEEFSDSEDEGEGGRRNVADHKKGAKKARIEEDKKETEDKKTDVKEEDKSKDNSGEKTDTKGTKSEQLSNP
T2 sequence (Q13547 whole entry): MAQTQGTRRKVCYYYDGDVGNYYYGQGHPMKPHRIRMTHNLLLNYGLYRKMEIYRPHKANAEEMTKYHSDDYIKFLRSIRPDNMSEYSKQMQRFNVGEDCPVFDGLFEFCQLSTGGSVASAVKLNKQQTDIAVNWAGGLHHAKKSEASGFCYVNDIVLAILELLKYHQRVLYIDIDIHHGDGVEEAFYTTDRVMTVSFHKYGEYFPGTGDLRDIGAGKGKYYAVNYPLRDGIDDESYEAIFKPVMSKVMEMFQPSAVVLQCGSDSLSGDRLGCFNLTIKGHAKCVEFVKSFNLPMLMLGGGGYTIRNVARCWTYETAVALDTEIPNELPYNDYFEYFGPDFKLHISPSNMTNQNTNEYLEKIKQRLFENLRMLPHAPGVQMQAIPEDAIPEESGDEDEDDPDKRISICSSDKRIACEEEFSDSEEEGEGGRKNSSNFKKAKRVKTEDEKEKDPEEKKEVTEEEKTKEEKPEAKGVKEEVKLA
T1 sequence (P56524 whole entry): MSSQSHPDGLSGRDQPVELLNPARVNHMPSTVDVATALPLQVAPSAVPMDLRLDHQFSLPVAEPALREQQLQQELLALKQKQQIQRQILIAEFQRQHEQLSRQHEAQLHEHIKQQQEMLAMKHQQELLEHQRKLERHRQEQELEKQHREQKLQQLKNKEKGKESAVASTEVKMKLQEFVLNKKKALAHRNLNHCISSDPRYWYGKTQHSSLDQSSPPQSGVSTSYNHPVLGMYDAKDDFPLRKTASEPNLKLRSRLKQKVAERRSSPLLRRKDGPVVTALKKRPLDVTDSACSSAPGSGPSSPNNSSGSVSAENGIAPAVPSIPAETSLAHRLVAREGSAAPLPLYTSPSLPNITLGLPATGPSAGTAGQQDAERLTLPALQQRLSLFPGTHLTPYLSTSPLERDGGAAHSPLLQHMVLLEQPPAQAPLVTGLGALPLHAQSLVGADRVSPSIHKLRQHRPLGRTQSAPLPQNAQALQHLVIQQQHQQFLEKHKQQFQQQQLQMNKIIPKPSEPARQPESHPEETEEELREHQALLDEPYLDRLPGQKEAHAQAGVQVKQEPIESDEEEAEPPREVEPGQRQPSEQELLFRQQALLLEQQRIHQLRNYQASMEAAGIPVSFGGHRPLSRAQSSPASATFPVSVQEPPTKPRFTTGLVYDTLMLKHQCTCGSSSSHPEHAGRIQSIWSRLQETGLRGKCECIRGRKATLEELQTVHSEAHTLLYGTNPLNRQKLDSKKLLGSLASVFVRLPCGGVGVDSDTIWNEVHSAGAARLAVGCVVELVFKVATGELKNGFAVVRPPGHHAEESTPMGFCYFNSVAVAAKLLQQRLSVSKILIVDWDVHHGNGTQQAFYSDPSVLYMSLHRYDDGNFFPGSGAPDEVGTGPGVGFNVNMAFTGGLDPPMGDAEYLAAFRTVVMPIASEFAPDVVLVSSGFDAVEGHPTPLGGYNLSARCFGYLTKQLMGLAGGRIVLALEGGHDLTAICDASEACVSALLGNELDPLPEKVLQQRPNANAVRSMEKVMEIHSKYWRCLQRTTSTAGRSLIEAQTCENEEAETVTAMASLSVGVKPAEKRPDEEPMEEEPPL
T6 sequence (O15379 whole entry): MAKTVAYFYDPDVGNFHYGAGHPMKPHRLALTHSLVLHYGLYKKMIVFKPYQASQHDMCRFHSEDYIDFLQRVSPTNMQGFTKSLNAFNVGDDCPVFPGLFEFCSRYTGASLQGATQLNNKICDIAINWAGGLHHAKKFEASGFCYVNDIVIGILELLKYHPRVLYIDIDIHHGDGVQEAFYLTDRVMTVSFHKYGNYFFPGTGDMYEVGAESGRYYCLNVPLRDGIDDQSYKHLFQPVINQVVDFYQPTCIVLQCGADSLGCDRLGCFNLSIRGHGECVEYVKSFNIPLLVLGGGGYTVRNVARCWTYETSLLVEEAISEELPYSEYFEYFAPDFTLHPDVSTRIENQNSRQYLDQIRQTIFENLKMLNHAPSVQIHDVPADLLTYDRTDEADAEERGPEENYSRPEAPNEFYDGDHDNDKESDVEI
T6 sequence (Q9Y618 395-489 partner limits assumed): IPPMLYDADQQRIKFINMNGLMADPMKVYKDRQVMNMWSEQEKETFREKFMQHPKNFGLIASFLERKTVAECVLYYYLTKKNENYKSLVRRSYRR

Molecule: C/C=C1\NC(=O)[C@H]2CSSCC/C=C/[C@H](CC(=O)N[C@H](C(C)C)C(=O)N2)OC(=O)[C@H](C(C)C)NC1=O [Romidepsin]
- IC50 (HDAC4): 0.025 ± 0.0073 µM

Molecule: N=C(N)NCCC[C@@H]1NC(=O)[C@@H](CCCNC(=N)N)NC(=O)[C@H]2CCCN2C(=O)[C@@H](Cc2c[nH]cn2)NC(=O)[C@H](Cc2ccc(O)cc2)NC(=O)[C@H](CCCCCS)NC(=O)[C@H](CCc2ccccc2)NC(=O)[C@@H](CCC(N)=O)NC(=O)[C@H](CC(=O)O)NC1=O [des3.3.0, SHA-Tyr-dHis-dPro-dArg- Arg-Asp-dGln-C27] (HELM PEPTIDE1{D.[dQ].[O=C([C@H](CCc1ccccc1)N[*:1])[*:2]].[O=C([C@H](CCCCCS)N[*:1])[*:2]].Y.[dH].[dP].[dR].R}$PEPTIDE1,PEPTIDE1,1:R1-9:R2$$$V2.0)
- IC50 (HDAC1 [2]): 0.0042 µM
- IC50 (HDAC8): 0.244 µM
- IC50 (HDAC2 [3]): 0.0091 µM
- IC50 (HDAC2 [4]): 0.01 to 0.1 µM
- IC50 (HDAC6 [5]): 0.0116 µM
- IC50 (HDAC3): 0.0064 µM

Molecule: Cyl-2
- IC50 (HDAC6 [1]; Supp. Table 1): 40 µM
- IC50 (HDAC1 [6]): 0.0007 ± 0.00045 µM

Molecule: Trapoxin B
- IC50 (HDAC6 [1]; Supp. Table 1): 0.36 ± 0.16 µM
- IC50 (HDAC4): 0.0003 ± 3e-05 µM
